Data as given in patent US10786468B2, “Deacetylnemorone abietane diterpenoids for use in cancer treatment” (University of South Carolina, priority 2017, dated 2020).

Assays:
[1] = test system: MG-63 (osteosarcoma) cells; assay: MTS assay, MG-63; format: cell-based; conditions: MG-63, 48 and 72 hours of exposure, FIG. 9
Text: (§1) The human cell lines used for MTS assay screening included MG-63 (osteosarcoma), SK-OV-3 (ovarian adenocarcinoma), MDA-MB-231 (breast adenocarcinoma derived from a metastatic site), HCT 116 (colorectal carcinoma), HCT 116/200 (an FdUrd resistant subclone of HCT 116 cells), A2780ADR (a doxorubicin resistant subclone of the ovarian carcinoma A2780), and HUVEC (normal human umbilical vein endothelial cells). All cells were stored in liquid nitrogen until use. MG-63, SK-OV-3, MDA-MB-231, and HCT 116 cell lines were all obtained from ATCC. A2780ADR cells were obtained from Sigma-Aldrich. HCT 116/200 cells were obtained from Dr. Franklin G. Berger from the Center for Colon Cancer Research. HUVEC cells were obtained from Lonza. MG-63 cells were maintained in MEM medium (Corning) supplemented with 10% Fetal Bovine Essence (VWR) and 1% penicillin/streptomycin solution (Corning). […]
(§2) Cells were first grown to approximately 80% confluency within […] tissue culture flasks (VWR). […] Cells were counted using a hemocytometer and their viability was confirmed using trypan blue (Gibco). […]
(§3) After seeding, the cells were incubated for 24 hours at 37° C. and 5% CO2 to allow for cell attachment and renewal of the exponential growth phase. […] The cells were incubated for 2 hours, and the absorbance of each well at 490 nm was measured using a Spectramax 190 microplate reader.

[2] = test system: SK-OV-3 (ovarian adenocarcinoma) cells; assay: MTS assay, SK-OV-3; format: cell-based; conditions: SK-OV-3, 48 and 72 hours of exposure, FIG. 10
Text: as §1, §2, §3

[3] = test system: MDA-MB-231 (breast adenocarcinoma) cells; assay: MTS assay, MDA-MB-231; format: cell-based
Text: as §1, §2, §3

[4] = test system: HCT 116 (colorectal carcinoma) cells; assay: MTS assay, HCT 116; format: cell-based
Text: as §1, §2, §3

[5] = test system: HCT 116/200 (FdUrd resistant subclone of HCT 116) cells; assay: MTS assay, HCT 116/200; format: cell-based
Text: as §1, §2, §3

[6] = test system: A2780ADR (doxorubicin resistant subclone of ovarian carcinoma A2780) cells; assay: MTS assay, A2780ADR; format: cell-based; conditions: 48 and 72 hours of exposure, FIG. 14
Text: as §1, §2, §3

[7] = test system: 59 cell lines of the NCI-60 panel; assay: NCI-60 one-dose cytotoxicity screen, 59 cell lines; format: cell-based; conditions: 10 μM
Procedure: (§4) One dose cytotoxicity screening was performed by the NCI-60 screening program of the National Institutes of Health (NIH), which is known in the art and available from the NIH. The NCI-60 panel is a collection of cancer cell lines, from various diverse tumors, which was developed in the 1980s by the National Cancer Institute to aid screening efforts for cytotoxic or cytostatic compounds.
(§5) In these screens 59 cell lines were utilized to determine the cytotoxic effect of the deacetylnemorone. […]
(§6) A control for each cell type was also simultaneously created, which was treated with 100 μL of culture media without deacetylnemorone. […] The bound stain was then dissolved in 10 mM trizma base and the absorbance was read using an automated plate reader at 515 nm.
(§7) Suspension cells were treated in the same fashion with the exception that the cells were fixed once they had settled at the bottom of the wells using 50 μL of 80% TCA. The absorbance of each well was then converted to growth percent using equation 1 (below) where Ti is the average absorbance of the samples treated with a certain concentration of the compound of this invention, Tz represents the average absorbance of the samples fixed at the time the compound of interest was added to the experimental groups, and C is the average absorbance of the media treated control. […]

melanoma cell lines = assay: NCI-60 one-dose screen, melanoma cell lines; format: cell-based; conditions: 10 μM, 48 hours; in 6 out of 9 melanoma cell lines
Procedure: as §4, §5, §6, §7

melanoma line SK-MEL-5 = assay: NCI-60 one-dose screen, SK-MEL-5; format: cell-based; conditions: 10 μM, 48 hours
Procedure: as §4, §5, §6, §7

SKMEL5 melanoma cells = assay: Cell cycle analysis (PI staining, flow cytometry); format: cell-based
Procedure: The effect of the deacetylnemorone on the cell cycle of SKMEL5 melanoma cells was determined using a PI staining assay. SKMEL5 cells were maintained in RPMI 1640 media supplemented with 10% FBS and 2 mM L-glutamine and incubated at 37° C. and 5% CO2. The cells were seeded in 6 well plates at a density of 300,000 cells per well. After 24 hours, the media was removed and replaced with either fresh media (control) or with media supplemented with 17.3 μM of the deacetylnemorone of FIG. 1. The cells were incubated with this treatment for 72 hours total. At 6, 12, 24, 48, and 72 hours, the cells from two wells each of the control of the treated group were trypsinized, collected in centrifuge tubes, and centrifuged at 2500 rpm for 5 minutes. The supernatant was removed, and the pellet was washed with PBS and centrifuged 2 times. The pellet was then suspended in 500 μL PBS and added 3 mL of 70% ethanol dropwise while vortexing. This mixture was then incubated at 4° C. for 24 hours. Next, the mixture was centrifuged, the supernatant was removed and the pellet was suspended in PBS and stored at 4° C. until all the samples were collected. […]

[8] = test system: MDA-MB-231 breast cancer cells; assay: In vitro invasion assay (cell-free gap); format: cell-based, human
Procedure: Cell migration of MDA-MB-231 breast cancer cells was assessed through making a cell-free gap with a Culture Insert 2 well 24 (Ibidi), consisting of two wells that were separated by a wall. A total of 70 μl of cell suspension comprising of 35×10^3 cells was added to each well. Cells were given 24 hours to attach and reach confluency. Culture inserts were then removed and cell debris was washed with PBS. Fresh culture media supplemented with different concentration of the compound of interest was added to the wells and the cells were incubated at 37° C. and 5% CO2 for 26 hours. Images were taken 0, 6, 20, and 26 hours after compound addition using a phase contrast Nikon Eclipse Ti-E inverted microscope. Quantification of invasion was performed by measuring the gap distance for three repetitions and using the following formula,
[formula] where Wn is the width of gap after incubation, and W0 is the initial width right after forming the gap. Tube Formation Assay

HUVEC endothelial cells = assay: Tube formation assay on growth factor reduced Matrigel; format: cell-based, human; conditions: 8 hours of incubation
Procedure: Growth factor reduced BD Matrigel (Corning), stored long-term at −20° C., was thawed on ice overnight in a 4° C. refrigerator prior to use. The following day, 50 μL of the thawed Matrigel was added to each well of a pre-chilled 96-well plate and incubated at 37° C. and 5% CO2 for approximately 30 minutes to allow the matrix to form a gel. Next, 100 μL of a cell suspension containing 20,000 HUVEC cells in cell culture media with various concentrations of deacetylnemorone was added to each well. The control consisted of HUVEC cells suspended in endothelial growth media alone. After 8 hours of incubation at 37° C. and 5% CO2, the number of tubes formed between the endothelial cells were quantified using an inverted microscope (Invitrogen EVOS FL Auto at 4× magnification).

**Q.** With deacetylnemorone as the substance, how does the “cytotoxicity (percent viability, MTS)” value [1] read?
**A.** significant cytotoxic properties

**Q.** And the “cytotoxicity (percent viability, MTS)” value [2]?
**A.** significant cytotoxic properties

**Q.** What about the “cytotoxicity (percent viability, MTS)” value ([3]; MDA-MB-231, 48 and 72 hours of exposure, FIG. 11) of the same substance?
**A.** significant cytotoxic properties

**Q.** What about the “lowest concentration at which cell death was indicated (MTS)” value ([3]; breast cancer) of the same substance?
**A.** 10 µg/mL

**Q.** What about the “cytotoxicity (percent viability, MTS)” value ([4]; HCT-116, 48 and 72 hours of exposure, FIG. 12) of the same substance?
**A.** significant cytotoxic properties

**Q.** And the “lowest concentration at which cell death was indicated (MTS)” value ([4]; colon cancer)?
**A.** 10 µg/mL

**Q.** What about the “cytotoxicity (percent viability, MTS)” value ([5]; HCT 116/200, 48 and 72 hours of exposure, FIG. 13) of the same substance?
**A.** significant cytotoxic properties

**Q.** What about the “cytotoxic effect in combination with FdUrd (percent viability, cell number)” value ([5]; HCT 116/200, 48 hour exposure, combination with FdUrd, FIG. 16 and 17) of the same substance?
**A.** dose dependent, synergistic cytotoxic effect

**Q.** And the “cytotoxicity (percent viability, MTS)” value [6]?
**A.** significant cytotoxic properties

**Q.** And the “number of cell lines whose growth was inhibited” value ([7]; 48 hours, 59 cell lines screened)?
**A.** 55 of the 59

**Q.** What about the “average inhibition of percent growth across all 59 cell lines” value ([7]; after 48 hours) of the same substance?
**A.** 47%

**Q.** And the “growth inhibition of melanoma cell lines” value (melanoma cell lines)?
**A.** more than 70%

**Q.** And the percent growth (melanoma line SK-MEL-5)?
**A.** negative percent growth

**Q.** What about the “percent of cells in S phase” value (SKMEL5 melanoma cells; SKMEL5, after 24 hours, 17.3 μM (method) / 15 μM (figure legend)) of the same substance?
**A.** increase in the percent of cells in S phase

**Q.** What about the sub-G1 population (SKMEL5 melanoma cells; SKMEL5, up to 72 hours) of the same substance?
**A.** low sub-G1 population

**Q.** And the “invasion of breast cancer cells” value ([8]; 1 μg/mL, after 26 hours)?
**A.** significantly inhibited

**Q.** And the “invasion of breast cancer cells” value ([8]; 10 μg/mL, after 26 hours)?
**A.** significantly inhibited

**Q.** And the “invasion of breast cancer cells” value ([8]; after 20 hours of incubation)?
**A.** significantly inhibited

**Q.** And the “tube formation between HUVEC cells” value (HUVEC endothelial cells; 0.1 μg/mL)?
**A.** inhibit tube formation

**Q.** What about the “tube formation between HUVEC cells” value (HUVEC endothelial cells; 10 μg/mL) of the same substance?
**A.** inhibit tube formation
